From ChEMBL document CHEMBL5303761, “Data for DCP probe BI-3231” (2023)

Tests used:
[1] = biological target: Cannabinoid receptor 1 (Homo sapiens) (UniProt P21554); assay: CB1(HU)_AGON Eurofins SafetyScreen44 (BI); conditions: filed as agonist; Compound concentration 10.0 uM
[2] = biological target: Prostaglandin G/H synthase 1 (Homo sapiens) (UniProt P23219); assay: COX-1 Eurofins SafetyScreen44 (BI); conditions: Compound concentration 10.0 uM
[3] = biological target: 5-hydroxytryptamine receptor 2A (Homo sapiens) (UniProt P28223); assay: 5HT2AH_AGON Eurofins SafetyScreen44 (BI); conditions: filed as agonist, Compound concentration 10.0 uM
[4] = biological target: 5-hydroxytryptamine receptor 2B (Homo sapiens) (UniProt P41595); assay: 5HT2B/H AG Eurofins SafetyScreen44 (BI); conditions: filed as agonist, Compound concentration 10.0 uM
[5] = biological target: T1, 5-hydroxytryptamine receptor 3A (Homo sapiens) (UniProt P46098); assay: 5HT3/H Eurofins SafetyScreen44 (BI); conditions: Compound concentration 10.0 uM
T1 sequence (whole entry): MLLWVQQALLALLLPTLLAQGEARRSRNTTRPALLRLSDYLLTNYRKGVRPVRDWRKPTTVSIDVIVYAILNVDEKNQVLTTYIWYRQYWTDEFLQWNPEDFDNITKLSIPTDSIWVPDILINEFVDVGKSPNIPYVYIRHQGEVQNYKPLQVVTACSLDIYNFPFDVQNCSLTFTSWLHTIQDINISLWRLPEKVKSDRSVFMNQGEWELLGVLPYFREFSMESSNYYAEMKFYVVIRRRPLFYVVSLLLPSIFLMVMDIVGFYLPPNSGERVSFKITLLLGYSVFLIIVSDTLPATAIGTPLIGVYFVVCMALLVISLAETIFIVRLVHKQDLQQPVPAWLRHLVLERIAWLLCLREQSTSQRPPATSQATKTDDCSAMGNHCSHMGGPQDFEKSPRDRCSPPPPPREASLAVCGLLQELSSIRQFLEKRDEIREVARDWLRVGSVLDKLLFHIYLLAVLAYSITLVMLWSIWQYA

[6] = biological target: T2, Alpha-1A adrenergic receptor (Homo sapiens) (UniProt P35348); assay: ALPHA1AH_ANTAG Eurofins SafetyScreen44 (BI); conditions: filed as antagonist, Compound concentration 10.0 uM
T2 sequence (whole entry): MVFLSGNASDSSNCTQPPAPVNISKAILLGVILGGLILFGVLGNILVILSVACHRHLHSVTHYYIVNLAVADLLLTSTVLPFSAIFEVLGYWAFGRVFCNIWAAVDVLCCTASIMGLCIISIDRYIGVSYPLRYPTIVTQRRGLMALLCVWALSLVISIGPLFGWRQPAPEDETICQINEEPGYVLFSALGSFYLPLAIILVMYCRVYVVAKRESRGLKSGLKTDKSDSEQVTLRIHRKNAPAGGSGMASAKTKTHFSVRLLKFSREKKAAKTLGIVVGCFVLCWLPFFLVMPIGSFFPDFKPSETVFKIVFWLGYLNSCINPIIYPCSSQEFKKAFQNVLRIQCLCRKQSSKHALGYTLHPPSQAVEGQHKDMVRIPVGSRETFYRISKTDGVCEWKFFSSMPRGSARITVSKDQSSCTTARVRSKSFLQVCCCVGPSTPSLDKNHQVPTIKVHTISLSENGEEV

[7] = biological target: T3, Alpha-2A adrenergic receptor (Homo sapiens) (UniProt P08913); assay: ALPHA2A/HU Eurofins SafetyScreen44 (BI); conditions: Compound concentration 10.0 uM
T3 sequence (whole entry): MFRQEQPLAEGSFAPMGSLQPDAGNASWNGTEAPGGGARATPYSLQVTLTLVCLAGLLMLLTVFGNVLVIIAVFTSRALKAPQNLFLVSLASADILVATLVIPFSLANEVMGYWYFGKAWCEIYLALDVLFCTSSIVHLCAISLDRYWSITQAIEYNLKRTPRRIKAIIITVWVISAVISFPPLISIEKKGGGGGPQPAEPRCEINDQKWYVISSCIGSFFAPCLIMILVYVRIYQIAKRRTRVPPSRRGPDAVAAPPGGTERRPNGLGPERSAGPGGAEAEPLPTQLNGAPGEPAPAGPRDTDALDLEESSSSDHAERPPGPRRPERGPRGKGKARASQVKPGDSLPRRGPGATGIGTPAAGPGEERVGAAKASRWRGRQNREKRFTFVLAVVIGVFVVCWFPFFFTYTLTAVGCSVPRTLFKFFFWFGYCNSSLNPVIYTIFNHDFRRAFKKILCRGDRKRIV

[8] = biological target: Beta-2 adrenergic receptor (Homo sapiens) (UniProt P07550); assay: BETA2/HUM Eurofins SafetyScreen44 (BI); conditions: filed as antagonist, Compound concentration 10.0 uM
[9] = biological target: Cannabinoid receptor 2 (Homo sapiens) (UniProt P34972); assay: CB2/PERIPH/H Eurofins SafetyScreen44 (BI); conditions: Compound concentration 10.0 uM
[10] = biological target: D(2) dopamine receptor (Homo sapiens) (UniProt P14416); assay: D2SH_AGON Eurofins SafetyScreen44 (BI); conditions: filed as agonist, Compound concentration 10.0 uM
[11] = biological target: Delta-type opioid receptor (Homo sapiens) (UniProt P41143); assay: DELTA2/H Eurofins SafetyScreen44 (BI); conditions: Compound concentration 10.0 uM
[12] = biological target: Glucocorticoid receptor (Homo sapiens) (UniProt P04150); assay: GCORTICOID/H Eurofins SafetyScreen44 (BI); conditions: Compound concentration 10.0 uM
[13] = biological target: voltage-dependent K+ channel (stored as IKs; KCNQ1/KCNE1) (Rattus norvegicus, UniProt P15383+Q9Z0N7); assay: K+/VOLT/RA Eurofins SafetyScreen44 (BI); type: protein-complex assay; conditions: rat brain, probe [125I]alpha-dendrotoxin, compound concentration 10 uM, read-out: % Ctrl
[14] = biological target: Tyrosine-protein kinase Lck (Homo sapiens) (UniProt P06239); assay: LCK_CE Eurofins SafetyScreen44 (BI); conditions: Compound concentration 10.0 uM
[15] = biological target: Mu-type opioid receptor (Homo sapiens) (UniProt P35372); assay: MU/H Eurofins SafetyScreen44 (BI); conditions: Compound concentration 10.0 uM
[16] = biological target: voltage-gated Na+ channel (site 2) (Rattus norvegicus, UniProt F1LQQ7+O08562+O88420+O88457+P04774+P04775+P08104+P15389+P15390+Q62968); assay: NA+/SITE2/R Eurofins SafetyScreen44 (BI); type: protein assay; conditions: rat brain, probe [3H]batrachotoxinin, compound concentration 10 uM, read-out: % Ctrl
[17] = biological target: 5-hydroxytryptamine receptor 2A (Homo sapiens) (UniProt P28223); conditions: Compound concentration 10.0 uM
[18] = biological target: T1, 5-hydroxytryptamine receptor 3A (Homo sapiens); conditions: Compound concentration 10.0 uM
[19] = biological target: Sodium-dependent noradrenaline transporter (Homo sapiens) (UniProt P23975); conditions: Compound concentration 10.0 uM
[20] = biological target: Mu-type opioid receptor (Homo sapiens) (UniProt P35372); conditions: Compound concentration 10.0 uM
[21] = biological target: Alpha-1B adrenergic receptor (Homo sapiens) (UniProt P35368); conditions: Compound concentration 10.0 uM
[22] = biological target: Alpha-2C adrenergic receptor (Homo sapiens) (UniProt P18825); conditions: Compound concentration 10.0 uM
[23] = organism: Rattus norvegicus; conditions: Compound concentration 10.0 uM
[24] = biological target: Alpha-1D adrenergic receptor (Homo sapiens) (UniProt P25100); conditions: Compound concentration 10.0 uM
Sequence of Alpha-1D adrenergic receptor (Homo sapiens) (P25100 whole entry): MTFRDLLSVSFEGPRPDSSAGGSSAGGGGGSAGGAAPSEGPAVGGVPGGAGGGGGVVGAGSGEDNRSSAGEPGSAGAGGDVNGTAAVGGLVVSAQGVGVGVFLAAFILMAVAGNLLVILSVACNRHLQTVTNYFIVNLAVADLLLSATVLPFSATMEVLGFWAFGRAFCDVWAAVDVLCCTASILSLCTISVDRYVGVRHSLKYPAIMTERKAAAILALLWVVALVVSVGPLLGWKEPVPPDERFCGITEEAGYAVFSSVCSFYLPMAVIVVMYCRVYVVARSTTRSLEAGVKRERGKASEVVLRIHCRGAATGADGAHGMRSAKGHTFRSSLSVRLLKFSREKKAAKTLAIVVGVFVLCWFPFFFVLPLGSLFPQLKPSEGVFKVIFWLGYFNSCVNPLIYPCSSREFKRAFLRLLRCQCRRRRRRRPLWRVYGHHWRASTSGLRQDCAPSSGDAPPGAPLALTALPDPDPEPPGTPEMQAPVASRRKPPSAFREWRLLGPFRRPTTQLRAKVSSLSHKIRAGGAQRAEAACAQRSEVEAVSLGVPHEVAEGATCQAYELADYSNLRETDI

Sequence of 5-hydroxytryptamine receptor 2A (Homo sapiens) (P28223 whole entry): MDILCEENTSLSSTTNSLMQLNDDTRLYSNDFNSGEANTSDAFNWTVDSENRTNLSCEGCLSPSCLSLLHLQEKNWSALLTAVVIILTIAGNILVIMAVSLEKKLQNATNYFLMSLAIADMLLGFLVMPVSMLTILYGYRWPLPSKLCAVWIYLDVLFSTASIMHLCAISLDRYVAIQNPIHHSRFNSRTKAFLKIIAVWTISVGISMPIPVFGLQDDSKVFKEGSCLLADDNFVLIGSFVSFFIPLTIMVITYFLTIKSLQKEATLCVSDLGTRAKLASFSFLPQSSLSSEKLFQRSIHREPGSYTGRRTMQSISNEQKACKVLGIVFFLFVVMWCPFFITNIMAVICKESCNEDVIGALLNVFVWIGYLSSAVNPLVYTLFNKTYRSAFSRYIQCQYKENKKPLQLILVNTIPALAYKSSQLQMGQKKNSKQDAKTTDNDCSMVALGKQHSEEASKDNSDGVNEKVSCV
Sequence of Sodium-dependent noradrenaline transporter (Homo sapiens) (P23975 whole entry): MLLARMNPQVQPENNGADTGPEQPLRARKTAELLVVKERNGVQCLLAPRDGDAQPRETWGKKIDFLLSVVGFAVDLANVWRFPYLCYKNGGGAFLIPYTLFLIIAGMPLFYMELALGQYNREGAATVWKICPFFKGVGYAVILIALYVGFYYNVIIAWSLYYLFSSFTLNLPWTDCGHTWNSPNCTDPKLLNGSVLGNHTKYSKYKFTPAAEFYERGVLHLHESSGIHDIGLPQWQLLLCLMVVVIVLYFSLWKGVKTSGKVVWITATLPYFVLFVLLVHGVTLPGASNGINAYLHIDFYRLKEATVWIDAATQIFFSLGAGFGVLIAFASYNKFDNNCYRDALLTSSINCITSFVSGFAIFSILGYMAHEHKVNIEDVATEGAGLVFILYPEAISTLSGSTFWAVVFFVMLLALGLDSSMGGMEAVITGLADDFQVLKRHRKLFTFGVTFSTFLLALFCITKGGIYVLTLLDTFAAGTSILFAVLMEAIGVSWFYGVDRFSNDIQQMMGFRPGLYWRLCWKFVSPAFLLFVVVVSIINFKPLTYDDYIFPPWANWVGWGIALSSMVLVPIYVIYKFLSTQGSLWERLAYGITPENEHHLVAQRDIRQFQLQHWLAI
Sequence of Alpha-2C adrenergic receptor (Homo sapiens) (P18825 whole entry): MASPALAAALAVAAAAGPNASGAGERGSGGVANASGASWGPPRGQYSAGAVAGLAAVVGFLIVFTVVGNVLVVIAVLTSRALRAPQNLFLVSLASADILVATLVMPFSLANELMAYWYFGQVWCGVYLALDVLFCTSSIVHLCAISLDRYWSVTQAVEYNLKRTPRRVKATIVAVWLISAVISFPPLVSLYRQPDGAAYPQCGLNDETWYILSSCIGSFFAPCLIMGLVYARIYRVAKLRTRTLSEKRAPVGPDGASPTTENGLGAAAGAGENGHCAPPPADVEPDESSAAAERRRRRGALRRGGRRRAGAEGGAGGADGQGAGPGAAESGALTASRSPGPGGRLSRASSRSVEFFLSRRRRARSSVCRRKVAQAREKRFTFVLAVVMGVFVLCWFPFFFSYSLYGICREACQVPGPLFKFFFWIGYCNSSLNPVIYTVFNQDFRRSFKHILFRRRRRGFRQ
Sequence of Alpha-1B adrenergic receptor (Homo sapiens) (P35368 whole entry): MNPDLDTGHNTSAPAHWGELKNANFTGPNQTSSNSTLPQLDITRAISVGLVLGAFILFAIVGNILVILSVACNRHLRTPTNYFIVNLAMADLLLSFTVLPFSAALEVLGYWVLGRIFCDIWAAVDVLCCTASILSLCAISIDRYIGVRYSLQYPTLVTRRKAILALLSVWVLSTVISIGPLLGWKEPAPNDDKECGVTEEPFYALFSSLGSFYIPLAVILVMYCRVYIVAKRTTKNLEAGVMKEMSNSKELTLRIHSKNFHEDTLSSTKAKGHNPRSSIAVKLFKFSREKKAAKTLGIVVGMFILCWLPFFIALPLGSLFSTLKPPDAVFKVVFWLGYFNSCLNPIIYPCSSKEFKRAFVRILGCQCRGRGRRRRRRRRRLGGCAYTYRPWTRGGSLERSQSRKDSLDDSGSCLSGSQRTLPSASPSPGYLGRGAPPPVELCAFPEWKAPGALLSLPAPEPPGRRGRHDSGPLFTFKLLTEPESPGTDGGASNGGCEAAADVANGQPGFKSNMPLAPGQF
Sequence of Mu-type opioid receptor (Homo sapiens) (P35372 whole entry): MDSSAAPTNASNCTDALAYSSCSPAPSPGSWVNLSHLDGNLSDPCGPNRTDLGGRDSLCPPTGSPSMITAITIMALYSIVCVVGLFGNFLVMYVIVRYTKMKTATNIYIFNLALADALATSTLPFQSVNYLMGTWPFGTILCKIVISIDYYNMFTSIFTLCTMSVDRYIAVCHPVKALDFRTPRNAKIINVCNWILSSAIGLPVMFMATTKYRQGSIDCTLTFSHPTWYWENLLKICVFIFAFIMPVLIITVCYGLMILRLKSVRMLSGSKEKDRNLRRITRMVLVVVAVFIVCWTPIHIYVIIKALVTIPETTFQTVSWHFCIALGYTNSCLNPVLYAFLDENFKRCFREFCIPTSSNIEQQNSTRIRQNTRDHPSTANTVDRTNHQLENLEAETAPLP
Sequence of Cannabinoid receptor 2 (Homo sapiens) (P34972 whole entry): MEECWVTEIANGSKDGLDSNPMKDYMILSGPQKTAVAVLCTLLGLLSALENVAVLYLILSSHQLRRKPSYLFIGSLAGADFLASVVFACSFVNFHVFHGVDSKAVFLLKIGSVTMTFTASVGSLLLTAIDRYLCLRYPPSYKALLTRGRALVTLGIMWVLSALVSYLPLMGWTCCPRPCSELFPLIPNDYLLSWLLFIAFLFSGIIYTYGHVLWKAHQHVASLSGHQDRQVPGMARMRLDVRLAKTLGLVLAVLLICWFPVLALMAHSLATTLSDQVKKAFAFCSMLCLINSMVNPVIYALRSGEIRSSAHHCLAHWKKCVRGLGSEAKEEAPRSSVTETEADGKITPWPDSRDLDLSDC
Sequence of D(2) dopamine receptor (Homo sapiens) (P14416 whole entry): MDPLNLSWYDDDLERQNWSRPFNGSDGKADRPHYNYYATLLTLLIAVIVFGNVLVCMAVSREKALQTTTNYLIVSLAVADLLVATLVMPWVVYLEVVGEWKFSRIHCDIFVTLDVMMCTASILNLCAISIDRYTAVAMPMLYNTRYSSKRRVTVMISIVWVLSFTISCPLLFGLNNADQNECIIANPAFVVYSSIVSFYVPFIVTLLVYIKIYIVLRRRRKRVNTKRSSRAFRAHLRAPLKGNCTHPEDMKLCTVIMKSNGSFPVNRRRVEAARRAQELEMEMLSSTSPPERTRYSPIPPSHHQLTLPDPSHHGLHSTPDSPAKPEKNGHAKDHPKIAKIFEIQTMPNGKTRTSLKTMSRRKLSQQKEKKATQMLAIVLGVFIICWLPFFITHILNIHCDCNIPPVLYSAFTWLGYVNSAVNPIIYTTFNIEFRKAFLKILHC
Sequence of Prostaglandin G/H synthase 1 (Homo sapiens) (P23219 whole entry): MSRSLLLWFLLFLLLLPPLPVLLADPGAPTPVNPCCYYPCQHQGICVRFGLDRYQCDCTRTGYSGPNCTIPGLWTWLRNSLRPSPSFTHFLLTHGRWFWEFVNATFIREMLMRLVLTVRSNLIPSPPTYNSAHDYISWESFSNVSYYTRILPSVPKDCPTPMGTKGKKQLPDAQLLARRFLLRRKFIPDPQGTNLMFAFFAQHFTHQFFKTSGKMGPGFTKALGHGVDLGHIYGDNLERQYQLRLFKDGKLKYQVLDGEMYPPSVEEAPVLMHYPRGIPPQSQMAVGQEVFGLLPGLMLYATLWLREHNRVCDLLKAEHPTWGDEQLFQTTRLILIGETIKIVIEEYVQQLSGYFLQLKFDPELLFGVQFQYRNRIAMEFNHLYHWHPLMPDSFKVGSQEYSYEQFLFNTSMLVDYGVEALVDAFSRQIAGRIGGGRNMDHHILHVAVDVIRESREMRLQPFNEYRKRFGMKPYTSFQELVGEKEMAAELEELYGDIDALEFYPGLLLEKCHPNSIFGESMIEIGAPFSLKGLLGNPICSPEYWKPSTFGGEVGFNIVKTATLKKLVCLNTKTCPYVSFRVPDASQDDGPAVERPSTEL
Sequence of Cannabinoid receptor 1 (Homo sapiens) (P21554 whole entry): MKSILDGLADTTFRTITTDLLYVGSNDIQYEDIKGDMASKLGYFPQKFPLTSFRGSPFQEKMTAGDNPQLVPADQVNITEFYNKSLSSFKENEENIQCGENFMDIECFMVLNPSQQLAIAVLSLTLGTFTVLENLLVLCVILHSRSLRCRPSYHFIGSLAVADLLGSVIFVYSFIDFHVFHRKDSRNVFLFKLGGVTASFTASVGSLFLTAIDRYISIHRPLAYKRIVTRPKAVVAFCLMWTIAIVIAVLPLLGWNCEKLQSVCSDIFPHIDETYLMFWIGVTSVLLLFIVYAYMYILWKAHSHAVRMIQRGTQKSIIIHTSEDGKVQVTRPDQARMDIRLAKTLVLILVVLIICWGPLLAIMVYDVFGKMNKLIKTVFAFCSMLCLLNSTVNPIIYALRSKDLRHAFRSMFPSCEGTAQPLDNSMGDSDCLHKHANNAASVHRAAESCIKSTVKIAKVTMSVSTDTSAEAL

Row | inhibition [17] | inhibition [18] | inhibition [19] | inhibition [20] | Compound | residual activity [1] | residual activity [2] | residual activity [3] | residual activity [4] | residual activity [5] | residual activity [6] | residual activity [7] | residual activity [8] | residual activity [9] | residual activity [10] | residual activity [11] | residual activity [12] | activity at 10 µM [13] | residual activity [14] | residual activity [15] | activity at 10 µM [16] | also measured
1 | 3.82% | 7.41% | 3.37% | 12.9% | CCn1c(=O)c(C)cn(Cc2nnc(-c3ccc(F)c(OC)c3F)s2)c1=O | 104% | 88% | 101% | 45% | 98% | 88% | 87% | 105% | 110% | 92% | 103% | 88% | 104% (not active) | 110% | 102% | 88% (not active) | inhibition [21]: -0.13%; inhibition [22]: 2.05%; inhibition [23]: -8.73%; inhibition [24]: 5.29%
2 | 0.32% | 10.6% | 3.4% | -0.02% | CCn1c(=O)c(C)cn(Cc2nnc(-c3ccc(F)c(O)c3F)s2)c1=O | 101% | 76% | 84% | 83% | 106% | 107% | 113% | 99% | 98% | 84% | 95% | 96% | 103% (not active) | 91% | 87% | 73% (not active) | inhibition [21]: -10%; inhibition [22]: 1.31%; inhibition [23]: 23%; inhibition [24]: -1.34%
